According to US4521339A, “Ansatrienols” (Nisshin Flour Milling Co., Ltd., priority 1981, dated 1985):
Values after ≈ are worked out from the molar mass of the structure shown. “Also recorded” adds a separate entry of the source.

Legend:
[1] = system: Aspergillus japonicus (IAM 2016); experiment: Antimicrobial activity (MIC, dilution method); assay type: cell-based; settings: IAM2016, 30° C., 72 hours, read-out: MIC (minimum inhibitory concentration)
Description: (§1) The MIC (minimum inhibitory concentration) value of the T-23-I substance was determined by cultivation of a microorganism in a medium containing 1.0% glucose and 0.2% malt extract at 30° C. for 72 hours by a dilution method.
(§2) The MIC (minimum inhibitory concentration) value of the T-23-II substance was determined by cultivation of a microorganism in a medium containing 1.0% glucose and 0.2% malt extract at 30° C. for 72 hours by a dilution method.

[2] = system: Candida utilis (IFO 0396); experiment: Antimicrobial activity (MIC, dilution method); assay type: cell-based; settings: Williopsis jadinii, IFO0396, 30° C., 72 hours, read-out: MIC (minimum inhibitory concentration)
Description: as §1, §2

[3] = system: Mucor pusillus (IAM 6122); experiment: Antimicrobial activity (MIC, dilution method); assay type: cell-based; settings: Rhizomucor pusillus, IAM6122, 30° C., 72 hours, read-out: MIC (minimum inhibitory concentration)
Description: as §1, §2

[4] = system: Penicillium chrysogenum (IAM 7106); experiment: Antimicrobial activity (MIC, dilution method); assay type: cell-based; settings: IAM7106, 30° C., 72 hours, read-out: MIC (minimum inhibitory concentration)
Description: as §1, §2

[5] = system: Saccharomyces cerevisiae (IFO 0304); experiment: Antimicrobial activity (MIC, dilution method); assay type: cell-based; settings: IFO0304, 30° C., 72 hours, read-out: MIC (minimum inhibitory concentration)
Description: as §1, §2

[6] = system: Saccharomyces rouxii (IFO 0505); experiment: Antimicrobial activity (MIC, dilution method); assay type: cell-based; settings: Zygosaccharomyces rouxii, IFO0505, 30° C., 72 hours, read-out: MIC (minimum inhibitory concentration)
Description: as §1, §2

L-5178Y lymphoma cells = experiment: Anti-tumor activity (in vitro) against L-5178Y lymphoma cells; assay type: cell-based; settings: statement in words
Description: The cell growth was observed by a dilution method using an Eagle-NEM medium (Nissui) supplemented with 10% horse serum and 100 mg/l asparagine and cultivated at 37° C. for 120 hours. The T-23-I substance in ethanol solution was added to an assay system.
The cell growth was observed by a dilution method using an Eagle-NEM medium (Nissui) supplemented with 10% horse serum and 100 mg/l asparagine and cultivated at 37° C. for 120 hours. The T-23-II substance in ethanol solution was added to an assay system.

mouse leukemia P-388 = experiment: Anti-tumor activity against mouse leukemia P-388 (life span of mice); assay type: in vivo; settings: CDF1 mice
Description: To six CDF1 male mice (20±1 g) of one group, 10^6 ascites tumor P-388 cells were transplanted intraperitoneally. The test material was administered first 24 hours and then 120 hours after transplantation. The dose of the test material suspended in gum arabic was 0.2 ml for each time. Increased life span was expressed in terms of % of the life span of the control group (administered with a gum arabic suspension).
To six CDF1 male mice (20±1 g) of one group, 10^6 ascites tumor P-388 cells were transplanted intraperitoneally. The test material was administered first 24 hours after transplantation of then six times every 24 hours. The dose of the test material suspended in gum arabic was 0.2 ml for each time. Increased life span was expressed in terms of % of the life span of the control group (administered with a gum arabic suspension).

[7] = system: several types of tumor cells; experiment: Growth inhibition of several types of tumor cells; assay type: cell-based; settings: statement in words
Acute toxicity = settings: mouse, in vivo, ip
Solubility in solvents = settings: for Solubility in solvents: organic solvents; for Soluble in (continued line of the solubility entry): organic solvents in which the substance is soluble, continuation line
mouse sarcoma 180 = experiment: Anti-tumor activity against mouse sarcoma 180 (life span of mice); assay type: in vivo; settings: ICR mice
Description: To six ICR male mice (25±1 g) of one group, 10^6 sarcoma 180 ascites tumor cells were transplanted intraperitoneally. The test material was administered first three hours after transplantation and then four times every 24 hours. The dose of the test material (T-23-II substance) suspended in gum arabic was 0.2 ml for each time. Increased life span was expressed in terms of % of the life span of the control group (administered with a gum arabic suspension).

SMILES	MIC [1] [µg/mL]	MIC [2] [µg/mL]	MIC [3] [µg/mL]	MIC [4] [µg/mL]	MIC [5] [µg/mL]	MIC [6] [µg/mL]	inhibition of the growth of L-5178Y lymphoma cells (L-5178Y lymphoma cells)	inhibition of the growth of several types of tumor cells [7]	LD50 (Acute toxicity) [mg/kg]	Solubility in solvents (Solubility in solvents)	Soluble in (continued line of the solubility entry) (Solubility in solvents)	Solubility in water (Solubility in solvents)	further results
COC1C=CC=CC=CCC(OC(=O)[C@@H](C)NC(=O)C2CCCCC2)C(C)C(O)C(C)=CCCC2=CC(=O)C=C(NC(=O)C1)C2=O (stereo partly shown) [T-23-I substance]	12.5 (≈ 19.6 µM)	4 (≈ 6.28 µM)	12.5 (≈ 19.6 µM)	8 (≈ 12.6 µM)	4 (≈ 6.28 µM)	4 (≈ 6.28 µM)	effective to inhibit the growth of L-5178Y lymphoma cells	some significant effect to inhibit the growth of several types of tumor cells	55.9	soluble in higher alcohols, acetone, chloroform, benzene and ethylacetate; also recorded: Soluble in methanol, ethanol, acetone; also recorded: Sparingly soluble in benzene and ether; also recorded: Insoluble in water, petroleum ether and hexane	chloroform and ethyl acetate	Insoluble in water	Increased life span T/C (mouse leukemia P-388; 0.75 mg/kg/day × 2 times): 105.7%; Increased life span T/C (mouse leukemia P-388; 1.5 mg/kg/day × 2 times): 107.3%; Increased life span T/C (mouse leukemia P-388; 3 mg/kg/day × 2 times): 105.7%; Increased life span T/C (mouse leukemia P-388; 6 mg/kg/day × 2 times): 120.2%; Increased life span T/C (mouse leukemia P-388; 12 mg/kg/day × 2 times): 123.3%; Increased life span T/C (mouse leukemia P-388; 24 mg/kg/day × 2 times): 56.0%
COC1C=CC=CC=CCC(OC(=O)[C@@H](C)NC(=O)C2CCCCC2)C(C)C(O)C(C)=CCCc2cc(O)cc(c2O)NC(=O)C1 (stereo partly shown) [T-23-II substance]	12.5 (≈ 19.6 µM)	4 (≈ 6.26 µM)	12.5 (≈ 19.6 µM)	12.5 (≈ 19.6 µM)	4 (≈ 6.26 µM)	4 (≈ 6.26 µM)	effective to inhibit the growth of L-5178Y lymphoma cells	some significant effect to inhibit the growth of several types of tumor cells	85.5	soluble in higher alcohols, acetone, chloroform, benzene and ethylacetate; also recorded: Soluble in chloroform, methanol, ethanol; also recorded: Sparingly soluble in benzene and ether; also recorded: Insoluble in water, petroleum ether and hexane	acetone and ethyl acetate	Insoluble in water	Increased life span T/C (mouse leukemia P-388; 1.25 mg/kg/day × 6 times): 130.0%; Increased life span T/C (mouse leukemia P-388; 2.5 mg/kg/day × 6 times): 109.9%; Increased life span T/C (mouse leukemia P-388; 5 mg/kg/day × 6 times): 127.1%; Increased life span T/C (mouse leukemia P-388; 10 mg/kg/day × 6 times): 120.2%; Increased life span T/C (mouse leukemia P-388; 20 mg/kg/day × 6 times): 135.7%; Increased life span T/C (mouse sarcoma 180; 0.7 mg/kg/day × 4 times): 109.6%; Increased life span T/C (mouse sarcoma 180; 2.2 mg/kg/day × 4 times): 95.6%; Increased life span T/C (mouse sarcoma 180; 6.6 mg/kg/day × 4 times): 115.0%; Increased life span T/C (mouse sarcoma 180; 20 mg/kg/day × 4 times): 138.7%
COC1C=CC=CC=CCC(O)C(C)C(O)C(C)=CCCC2=CC(=O)C=C(NC(=O)C1)C2=O (stereo not shown) [T-23-III substance]	–	–	–	–	–	–	–	some significant effect to inhibit the growth of several types of tumor cells	~250	Soluble in chloroform, ethyl acetate, methanol; also recorded: Sparingly soluble in ethyl ether; also recorded: Insoluble in petroleum ether and water	toluene	Insoluble	–
COC1C=CC=CC=CCC(O)C(C)C(O)C(C)=CCCc2cc(O)cc(c2O)NC(=O)C1 (stereo not shown) [T-23-IV substance]	–	–	–	–	–	–	–	some significant effect to inhibit the growth of several types of tumor cells	~280	Soluble in chloroform, ethyl acetate, methanol; also recorded: Sparingly soluble in benzene and toluene; also recorded: Insoluble in petroleum ether and water	ethanol, acetone and acetonitrile	Insoluble	–
